Measured values from patent US20230293483A1, “COMPOSITION FOR PREVENTING OR TREATING LIVER DISEASE, COMPRISING ICARITIN AND QUERCETIN” (INDUSTRY-ACADEMIC COORPERATION FOUNDATION DAEGU HAANY …, priority 2020, published 2023).

Tested on: HepG2 cells
Test: Cell viability test (MTT assay) against oxidative stress induced by AA+iron
Format: cell-based, human
Settings: for hepatocellular protective effect (cell viability): AA+iron in HepG2, compared with genistein and luteolin at the same concentration, FIG. 1
Protocol: HepG2 cell, a human-derived liver parenchymal cell line, was purchased from the American Type Culture Collection (ATCC, Rockville, MD, USA). Dulbecco's modified Eagle's medium (DMEM; Gibco) mixed with heat-treated 10% fetal bovine serum (FBS; Gibco), 100 units/ml of penicillin, and 100 μg/mL of streptomycin (Gibco) was used to culture HepG2 cells in an incubator maintained at 37° C. and 5% CO2 conditions. Cells were cultured in a 100 mm dish to a confluence of 80% or more, and subcultured twice a week at a ratio of 1:4. After serum-starvation for 12 hours, drugs were treated at different concentrations, and 1 hour later, 10 μM of AA was treated for 12 hours, and then treated with 5 μM of iron, and further cultured for 5 hours.
Cell viability was measured by MTT assay. HepG2 cells were dispensed in 0.5 mL/well at a concentration of 2×10^5 cells/well in a 24-well plate, and then cultured for 24 hours. After serum was depleted for 12 hours, the drug was treated for 1 hour, and then 10 μM of AA was treated for 12 hours, and 5 μM of iron was added and cultured for 5 hours. Herein, 300 μL of MTT 0.5 mg/mL per well was treated and reacted at 37° C. for 2 hours. After carefully removing the medium and dissolving formazan crystals produced by reducing MTT with dimethylsulfoxide (DMSO), absorbance was measured at 570 nm using a microplate measuring instrument (Tecan Infinite M200 PRO, USA).
In addition, in order to identify the cell viability according to the mixed use of icaritin and quercetin according to the results of FIG. 1, HepG2 cells were dispensed in 2×10^5 cells/well into a 24-well plate and cultured for 24 hours. After treatment for 1 hour at the concentrations shown in Table 1 below, 10 μM of AA was treated for 12 hours, and 5 μM of iron was added and cultured for 5 hours. […] The absorbance was measured at 570 nm using a microplate measuring instrument (Tecan Infinite M200 PRO, USA).

SMILES | hepatocellular protective effect (cell viability) | cell viability (HepG2, drug 1 h, then 10 μM AA 12 h + 5 μM iron 5 h, MTT, FIG. 2)
COc1ccc(-c2oc3c(CC=C(C)C)c(O)cc(O)c3c(=O)c2O)cc1 [Comparative Example 1, icaritin] | most significant hepatocellular protective effects | –
O=c1c(O)c(-c2ccc(O)c(O)c2)oc2cc(O)cc(O)c12 [Comparative Example 2, quercetin] | most significant hepatocellular protective effects | about 47.9±0.4%
